# Results published in ChEMBL document CHEMBL3507680, “University of Dundee, Gates Library screen for HepG2 cell viability”.
# Experiment: Human HepG2 cell viability assay in 384 well format
# Type: toxicity, cell-based
# Parameters: dose 125 nL, time 70.5 hour; concentration not given beside the values
# Details: HepG2 cells, read-out: Inhibition
row,SMILES,cytotoxicity at 70.5 h [%]
1,COCCC1COC2(CCN(C(=O)c3ccccc3)CC2)C1 (centres undefined),-7.59
2,c1cnc(N2CCCn3c(nnc3Cn3cccn3)C2)nc1,1.91
3,CCCc1nnsc1C(=O)N1CCCC1(C)C(=O)N1CCOCC1 (centres undefined),-9.09
4,CCc1oc(C(=O)NCCSc2ncn[nH]2)cc1CN1CCCC1,-9.51
5,COCc1ccc(OC)c(CNC2CCCNC2=O)c1 (centres undefined),-8.49
6,O=C(Nc1ccc(-n2cncn2)c(F)c1)C1CCN(C(=O)C2CC2)CC1,1.9
7,Cc1nccn1CC1CCN(C(=O)c2ccccc2)CC1,-7.01
8,CC(C)n1ccnc1C1CCCN(c2ncccc2C(N)=O)C1 (centres undefined),-0.947
9,N#Cc1ccnc(N2CCN(C3CCOC3=O)CC2)c1 (centres undefined),14.2
10,Cc1nc(CN2C[C@@H]3CCCO[C@@H]3[C@H](N(C)C(C)C)C2)cs1,-1.04
11,COCC1CN(C(=O)COc2ccccc2)Cc2ncn(C)c21 (centres undefined),-0.249
12,Cc1cnc(C(=O)N2CCN3C[C@H](OCc4cccnc4)C[C@H]3C2)cn1,-9.39
13,CC(=O)NCC(=O)NCC1(O)CCN(c2cnccn2)C1 (centres undefined),15.9
14,CN1CCN(Cc2ccc(Cl)cc2)CC1C(=O)O (centres undefined),-6.51
15,O=C(O)c1ccccc1-c1cnc(CNC(=O)C2CCOCC2)nc1,14
16,c1cc2cc[nH]c2c(CC2CN(Cc3cscn3)C2)n1,-3.59
17,CC(C)(C)SCCCC(=O)N1CCC(Nc2cccnn2)CC1,-6.39
18,Cc1cc(C)c(CNC(=O)N(C)CC2CCCCO2)c(=O)[nH]1 (centres undefined),-3.49
19,CN(C)c1cc(CNCc2cccc3c2OCCO3)ccn1,-4.63
20,O=C(Cc1ccc(O)c(F)c1)N1CCC2(CCNCC2)CC1,-1.13
21,Cc1cnc(C(=O)N2CCCN(Cc3cnn(C(C)C)c3)CC2)cn1,17.6
22,Cc1ccc(-c2cc(C(=O)O)sn2)cc1,-15.1
23,CN1CCN(C)C2(CCN(Cc3ccc(C4CCCO4)s3)CC2)C1 (centres undefined),-3.28

row,SMILES,cytotoxicity at 70.5 h [%]
1,CC(=O)Nc1nc(SCc2ccc3c(c2)OCO3)ns1,-6.56
2,CCOc1ccc(C(=O)CCC(=O)NCc2csc(N)n2)cc1C,-11.5
3,CN(C)CCNc1ncccc1CNC(=O)Nc1cc(F)cc(F)c1,-12
4,CS(=O)(=O)NCC1CCCN(C(=O)CCCc2ccccc2)C1 (centres undefined),-8.93
5,Cn1cc2c(n1)C(CNC(=O)Cc1ccsc1)OCC2 (centres undefined),-6.77
6,Cc1cc(NC(=O)CN2CCN(c3nccs3)C(C)C2)on1 (centres undefined),-6.15
7,CCN(C(=O)c1nc2c(s1)CCCN2C(C)=O)C(C)C,2.41
8,O=C(NCc1cnn(-c2ccc(F)cc2F)c1)C1CCCO1 (centres undefined),-1.57
9,CCn1c(C2CCCN(Cc3cc(OC)cc(OC)c3)C2)nn(C)c1=O (centres undefined),-4.68
10,NC(=O)Cn1ccc(NC(=O)C2(c3cccc(Cl)c3)CC2)n1,-7.03
11,CN1CCN(S(=O)(=O)C2CC2)Cc2cccnc21,-0.334
12,CCOc1cncc(N2CCN(c3ccccc3F)CC2)n1,6.24
13,COCCCN1CC2(CCN(Cc3cc(C(C)C)no3)CC2)CC1=O,0.169
14,Cc1cccc2c1cnn2CCCNC(=O)C1CC1,-4.27
15,CNC(=O)[C@H]1CC[C@@H]2[C@@H](CCN2CCOCc2ccccc2)O1,-12.3
16,CCN(CC)c1ncc(Cl)c(C(=O)NC2CCC(O)CC2)n1 (centres undefined),-0.431
17,COCCNc1nc(-c2ccc(S(=O)(=O)N3CCCCC3)cc2)cs1,0.097
18,Cc1ncc2c(n1)CCCC2NC(=O)c1cnn(Cc2ccccc2)c1 (centres undefined),-12.8
19,CCn1cc(CN2CCCC(COc3ccccc3F)C2)cn1 (centres undefined),10.5
20,CCNc1nnc(SCc2nnc(C(C)(C)C)o2)s1,-8.88
21,COc1ccccc1CC(=O)N1CCC(NCc2cc[nH]c2)CC1,4.03
22,CCOC(C)c1nccn1Cc1cc(C)on1 (centres undefined),-1.6
23,O=C(NCCO)Nc1ccc(Br)c(F)c1,-0.649

row,SMILES,cytotoxicity at 70.5 h [%]
1,CCC(O)CN1CCN(C(=O)c2cccc(CC#N)c2)CC1 (centres undefined),1.07
2,NCCO[C@H]1C[C@@H](O)C12CCN(C(=O)CCOc1ccccc1)CC2,-0.434
3,COC(=O)NC1(C(=O)Nc2ccc(-c3cc[nH]n3)cc2)CCCC1,-0.955
4,Cc1ccc(NC(C)C(=O)NCc2cccs2)cc1C (centres undefined),18
5,Cc1ccc(CN2CCc3ncnc(-c4ccc(F)cc4)c3CC2)o1,-14.6
6,O=C(NCCCO)Nc1ccccc1,3.04
7,CC(C)N1CCCC1c1cc(CCO)[nH]n1 (centres undefined),-9.45
8,CCN(Cc1nc2c(cnn2C)c(=O)[nH]1)Cc1ccco1,-13.6
9,CS(=O)(=O)NCc1noc2c1CN(C(=O)C1CC1)CC2,-7.86
10,COCCC(=O)N1CCCC(c2noc3nc(C)cc(C(F)(F)F)c23)C1 (centres undefined),-5.21
11,Cc1ccc(S(=O)(=O)NC(=O)COc2ccc(CC#N)cc2)s1,2.71
12,O=S1(=O)NCC2(CCN(c3ncccn3)CC2)COc2ccccc21,47.5
13,Cc1cc(C(F)(F)F)nc(C2COCCN2S(C)(=O)=O)n1 (centres undefined),-6.03
14,Cc1ocnc1C(=O)N[C@H]1CN(CC2CCC2)C[C@@H]1C(C)C,-1.41
15,CCC(O)CN1CCN(C(=O)c2sccc2C(C)C)CC1 (centres undefined),-7.94
16,COC(=O)c1ccc(N2CCN(C(=O)CC(F)(F)F)C(C)C2)cc1 (centres undefined),-9.89
17,O=C(NC[C@@H]1CCCO1)c1cccnc1N1CCCC1c1ccccn1 (some centres undefined),-3.08
18,CC(=O)N1CCN(Cc2cccs2)CC2(CC(=O)N(C)C2)C1 (centres undefined),-9.26
19,COC(C)c1cccc(NCc2cccc(O)c2)c1 (centres undefined),-4
20,O=C(O)[C@@H]1CN(C(=O)CSCC2CC2)C[C@H]1c1ccncc1,1.26
21,COc1cccc(OCC(=O)NCc2ccc3[nH]c(=O)[nH]c3c2)c1,-13.7
22,N#Cc1ccc(N2CCC3(CCC(=O)N3CCN3CCCC3)CC2)nc1,-9.44
23,O=C(c1ccccc1F)N1CC(c2nc(C3CC3)no2)C1,-11.5

row,SMILES,cytotoxicity at 70.5 h [%]
1,CN(CCSc1nncn1CC(F)(F)F)c1ccccc1,1.22
2,COCC1CC2(CCN(c3ccccn3)CC2)CN1C(C)C (centres undefined),-11.6
3,COc1ccc(CN2CCN(CC3CC3)[C@@H]3CS(=O)(=O)C[C@@H]32)cc1C,10.6
4,C[C@@H]1CN(Cc2cc(C(F)(F)F)ccc2F)CC[C@@]1(O)C1CC1,-2.04
5,N#Cc1ccc(N2CCCN(CC(N)=O)CC2)cc1,-9.42
6,Cc1nc(C2CCCN(C(=O)CCCn3cccn3)C2)sc1C (centres undefined),-15.3
7,Cc1csc(C(Cc2ccsc2)NC(=O)CN(C)Cc2ccccn2)n1 (centres undefined),-5
8,Cn1ccnc1CN1CCN2C[C@H](Oc3ccccc3)C[C@H]2C1,11.2
9,O=C(CC(F)(F)F)N1CCc2[nH]nc(-c3ccc4c(c3)OCO4)c2C1,7.4
10,Cc1n[nH]c(C2CN(C(=O)c3ccc4c(c3)COC4)CCO2)n1 (centres undefined),-1.57
11,NC(=O)C1CCCN1C1CCN(C(=O)c2ccc3c(c2)OCO3)CC1 (centres undefined),-1.65
12,Cc1cc(C)n(CC2CCCN2C(=O)c2ccc(C(N)=O)cn2)n1 (centres undefined),-1.95
13,O=C(CN1CCOCC1)Nc1cc(C(F)(F)F)ccc1-n1cccc1,-3.59
14,CCCC(=O)NC(Cc1ccc(C)cc1)c1ccccn1 (centres undefined),2.81
15,CC1CCCN(Cc2c(C3CC3)n(CC(=O)N(C)C)c3ncccc23)C1 (centres undefined),27.3
16,CCCSCC(=O)N1C[C@@H]2CC[C@H](C1)N(Cc1ccccn1)C2=O,-5.83
17,CC(C)Cn1ncc(C(=O)O)c1C1CC1,-5.02
18,CC(C)Sc1ccc(C(C)NC(=O)CNS(C)(=O)=O)cc1 (centres undefined),17
19,Cc1nnnn1-c1cc(NCc2cc(C#N)ccc2F)ccc1F,-10.8
20,CC(C)C(NCc1ccc(Cn2cncn2)cc1)c1ccccc1 (centres undefined),-3.88
21,Cc1cccc(S(=O)(=O)N2CCCc3c(c(=O)n(C)n3C)C2)c1,-9.39
22,O=C(c1cnccn1)N1CC[C@@H]2CO[C@@H](CN3CCCC3)[C@@H]2C1,-5.22
23,CCCn1ccnc1CN1CCC(Oc2cccc(F)c2)(C(=O)O)CC1,-11

row,SMILES,cytotoxicity at 70.5 h [%]
1,CN1CCN(Cc2cn3c(n2)CN(Cc2ccccn2)CC3)CC1,-9.35
2,O=C(NCC1CCS(=O)(=O)C1)c1ccc(NC(=O)c2ccco2)cc1 (centres undefined),26.8
3,CC(=O)N1C[C@H](NC(=O)c2cscn2)[C@@H]2OCCC[C@@H]21,-16.1
4,O=C(CCN1CCCC1)N1CC[C@@H](c2ccc3ccccc3c2)[C@H](O)C1,-21
5,Cc1nn(C)c2c(N3CCN(C)CC3)nc(C3CC3)nc12,-11.8
6,CN1CCCCC12CCN(c1nncs1)CC2,1.8
7,Cn1cnc2c1CCN(Cc1cccc(C(=O)N3CCCCC3)c1)C2,-7.19
8,O=C(C1CC(=O)N(c2n[nH]c3cc(Br)ccc23)C1)N1CCCC1 (centres undefined),-9.16
9,Cc1nnc([C@]23COC[C@H]2CN(S(=O)(=O)c2cccnc2)C3)o1,-5.13
10,O=C(CS(=O)(=O)Cc1cc(Cl)c2c(c1)OCCCO2)NCC1CC1,-3.53
11,CCN(Cc1ccoc1)C(=O)NC1CCN(CC2CCCC2)CC1,-6.01
12,CCC(C#N)NC(=O)CCCOc1cccc(C(C)=O)c1 (centres undefined),-11.3
13,CCC(=O)c1ccc(OCC(=O)NC(C)Cc2cc(C)n[nH]2)cc1 (centres undefined),-8.59
14,CC[C@@]1(O)CCN(C(=O)c2ccc(-n3cnnc3)cc2)C[C@H]1O,20.9
15,COCC1c2c(cnn2C)CCN1Cc1cccc(C)c1 (centres undefined),-1.18
16,CCCN1CC[C@@H]2OC[C@H](C(=O)Nc3cccnc3)C[C@@H]2C1,2.64
17,CCNC(=O)NCc1ccccc1NS(=O)(=O)c1ccccc1,-10.5
18,Oc1nc(N2CCOCC2)nc2c1CCN(Cc1ccccc1)CC2,-1.05
19,CC(=O)NCCNC(=O)c1sc(-c2ccc(Cl)cc2)nc1C,-4.15
20,F[C@@H]1CN(CC2CC2)C[C@@H]1OCc1nc2ccccc2o1,-1.13
21,COc1ccccc1C(C)(C)NC(=O)NC1CCC(O)CC1 (centres undefined),-15.4
22,CN(Cc1ccc(F)cc1)C(=O)CN1CCCC(Cn2cncn2)C1 (centres undefined),3.89
